≈ marks a conversion by molar mass, not a printed value. Like-named read-outs stand apart in the source and are kept apart here.
Test: Solubility at 25° C. in organic solvents (Example 15)
Assay type: physicochemical
Conditions: organic solvent or mixture
[1] = chlorobenzene, clorobenzene, read-out: Solubility in clorobenzene
[2] = CHCl3, read-out: Solubility in CHCl3
[3] = DMF, read-out: Solubility in DMF
[4] = THF, read-out: Solubility in THF

Row | Structure (SMILES) | solubility [1] | solubility [2] | solubility [3] | solubility [4]
1 | CC(C)(C)OC(=O)n1c2c(c3c1=Nc1ccccc1S3)Sc1ccccc1N=2 [Compound 1a] | 5000 to 10000 µg/mL (≈ 12.3 to 24.5 mM) | 5000 to 10000 µg/mL (≈ 12.3 to 24.5 mM) | 1000 to 5000 µg/mL (≈ 2.45 to 12.3 mM) | 1000 to 5000 µg/mL (≈ 2.45 to 12.3 mM)
2 | CCCCCCCc1ccc2c(c1)N=c1c(c3c(n1C(=O)OC(C)(C)C)=Nc1cc(CCCCCCC)ccc1S3)S2 [Compound 1c] | > 10000 µg/mL | > 10000 µg/mL | < 1000 µg/mL | > 10000 µg/mL
3 | CCCCCCCCCCCCc1ccc2c(c1)N=c1c(c3c(n1C(=O)OC(C)(C)C)=Nc1cc(CCCCCCCCCCCC)ccc1S3)S2 [Compound 1d] | > 10000 µg/mL | > 10000 µg/mL | > 10000 µg/mL | > 10000 µg/mL
4 | c1ccc2c(c1)N=c1[nH]c3c(c1S2)Sc1ccccc1N=3 [Compound 2a, reference compound] | < 1000 µg/mL | < 1000 µg/mL | < 1000 µg/mL | < 1000 µg/mL
